Experimental data reported in US20240165055A1, “TREATMENT” (Verona Pharma PLC, priority 2022, published 2024).

Test system: patients with moderate to severe COPD
Assay: Multi-centre, randomized, double-blind, placebo-controlled clinical study of nebulised ensifentrine in COPD (spirometry, FEV1)
Format: in vivo
Conditions: 3 mg BID by nebuliser
Experimental: A clinical study was conducted to determine the efficacy of ensifentrine in treating COPD compared with placebo. Ensifentrine was administered by nebuliser at a dose of 3 mg twice daily (BID) for 24 weeks. The study was a multi-centre, randomized, double-blind, parallel-group, placebo-controlled trial with around 800 patients and 5:3 randomization.
The study population included patients aged 40-80 years with moderate to severe COPD (FEV130%-70% p.n., FEVi/forced vital capacity [FVC] ratio <0.7, with mMRC ≥2). The randomization stratified (a) the use of stable background maintenance LAMA or LABA therapy use (approx. 50%. yes or no) and (b) cigarette smoking (current or former). Inhaled corticosteroid (ICS) maintenance therapy was permitted in up to 20% of patients under certain provisions.
The primary endpoint of the study was change from baseline in average FEV1 area under the curve (AUC)0-12h post-dose at week 12. Secondary endpoints of the study included: peak FEV1 over 4 hours post-dose at Week 12; morning trough FEV1 at Week 12; and other endpoints including moderate/severe COPD exacerbations frequency over 24 Weeks.
Baseline FEV1 is the mean of the two measurements taken before study medication on the day of first dosing, i.e. ≤40 minutes and just prior to dosing, pre-dose on day 1.
Average FEV1 AUCO-12h is defined as area under the curve over 12 hours of the FEV1, divided by 12 hours.
Morning trough FEV1 at Week 12 is defined as the FEVi assessed at 11.5 to 12 hours following the prior evening dose.
The investigational product and placebo were provided in 2.5 mL unit dose format in an ampule and administered via a nebuliser.

Compound: COc1cc2c(cc1OC)-c1c/c(=N\c3c(C)cc(C)cc3C)n(CCNC(N)=O)c(=O)n1CC2 [Ensifentrine]
- Morning Trough FEV1 Week 12: CFB Least Squares Mean, mL (95% CI) (Week 12, FEV1 at 11.5 to 12 hours following the prior evening dose): 6.3 (−12.3, 24.9) mL
- Morning Trough FEV1 Week 12: Placebo-corrected CFB LS Mean Diff., mL (95% CI) (Week 12, versus placebo): 48.9 (18.3, 79.5) mL
- Improvement in lung function in all subgroups (average FEV1 (AUC)0-12h at Week 12), result in words (all subgroups): All subgroups showed improvement in lung function with ensifentrine that was statistically significant
- Morning trough FEV1 at week 12, result in words (week 12): statistically significant effect
